Source: patent US10669269B2, “Substituted N-(1H-indazol-4-yl)imidazo[1,2-a]pyridine-3-carboxamide compounds as type III receptor tyrosine kinase inhibitors” (ARRAY BIOPHARMA INC., priority 2010, dated 2020)
Counter-ions that a name gives are not always drawn.

Experiments:
c-KIT = target: T1, c-KIT (Homo sapiens, UniProt P10721); test: c-KIT Cell-Based Assay (Example D); conditions: averaged IC50; phospho-c-KIT in M-07e cells stimulated with 150 ng/ml recombinant human SCF; read-out: cKIT Cell ELISA IC50
T1 construct: M-07e cells (human acute megakaryoblastic leukemia cell line) were serum-starved for 4 hours; endogenous in cells; host or cells: M-07e cells (human acute megakaryoblastic leukemia cell line)
Procedure, shortened: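 M-07e cells serum-starved 4 h, treated 1 h with compound (9-point, 3-fold dilutions, top dose typically 5,000 nM) at 37° C, then stimulated 4 min with 150 ng/ml SCF. Phospho-c-KIT in lysates quantified by ELISA against a standard curve; IC50 from 4-parameter logistic fit as 50% of control.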

cFMS = target: T2, cFMS (Homo sapiens, UniProt P07333); test: cFMS Cell-Based Assay (Example C); conditions: averaged IC50; phospho-cFMS in THP-1 cells stimulated with 250 ng/mL recombinant human MCSF; read-out: cFMS Cell ELISA IC50
T2 construct: THP-1 cells (human acute monocytic leukemia cell line) were serum-starved for 4 hours; endogenous in cells; host or cells: THP-1 cells (human acute monocytic leukemia cell line)
Procedure, shortened: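 THP-1 cells serum-starved 4 h, then treated 1 h with compound (9-point, 3-fold series, top dose typically 5,000 nM) at 37 °C, then stimulated 1 min with 250 ng/mL recombinant human MCSF. Phospho-cFMS in lysates quantified by capture ELISA against a purified phospho-protein standard curve. IC50 at 50 percent of control, 4-parameter logistic fit.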

PDGFR beta = target: T3, PDGFR beta (Homo sapiens, UniProt P09619); test: Phospho PDGFR LICOR Cell Assay (Example B); format: cell-based; conditions: averaged IC50; PDGFR beta phosphorylation in HS27 human fibroblast cell line, PDGF-BB stimulation 10 minutes, normalized to total ERK
T3 construct: endogenous in cells; host or cells: HS27 human fibroblast cell line
Procedure, shortened: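 HS27 human fibroblasts pretreated 1 h with compound, then stimulated 10 min with PDGF-BB. Fixed, permeabilized cells immunostained for phospho-PDGFRβ and total ERK and read by two-colour infrared fluorescence, with phospho signal normalized to ERK. IC50 = 50% of control from 4-parameter logistic fit.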

T3 sequence (P09619 33-1106): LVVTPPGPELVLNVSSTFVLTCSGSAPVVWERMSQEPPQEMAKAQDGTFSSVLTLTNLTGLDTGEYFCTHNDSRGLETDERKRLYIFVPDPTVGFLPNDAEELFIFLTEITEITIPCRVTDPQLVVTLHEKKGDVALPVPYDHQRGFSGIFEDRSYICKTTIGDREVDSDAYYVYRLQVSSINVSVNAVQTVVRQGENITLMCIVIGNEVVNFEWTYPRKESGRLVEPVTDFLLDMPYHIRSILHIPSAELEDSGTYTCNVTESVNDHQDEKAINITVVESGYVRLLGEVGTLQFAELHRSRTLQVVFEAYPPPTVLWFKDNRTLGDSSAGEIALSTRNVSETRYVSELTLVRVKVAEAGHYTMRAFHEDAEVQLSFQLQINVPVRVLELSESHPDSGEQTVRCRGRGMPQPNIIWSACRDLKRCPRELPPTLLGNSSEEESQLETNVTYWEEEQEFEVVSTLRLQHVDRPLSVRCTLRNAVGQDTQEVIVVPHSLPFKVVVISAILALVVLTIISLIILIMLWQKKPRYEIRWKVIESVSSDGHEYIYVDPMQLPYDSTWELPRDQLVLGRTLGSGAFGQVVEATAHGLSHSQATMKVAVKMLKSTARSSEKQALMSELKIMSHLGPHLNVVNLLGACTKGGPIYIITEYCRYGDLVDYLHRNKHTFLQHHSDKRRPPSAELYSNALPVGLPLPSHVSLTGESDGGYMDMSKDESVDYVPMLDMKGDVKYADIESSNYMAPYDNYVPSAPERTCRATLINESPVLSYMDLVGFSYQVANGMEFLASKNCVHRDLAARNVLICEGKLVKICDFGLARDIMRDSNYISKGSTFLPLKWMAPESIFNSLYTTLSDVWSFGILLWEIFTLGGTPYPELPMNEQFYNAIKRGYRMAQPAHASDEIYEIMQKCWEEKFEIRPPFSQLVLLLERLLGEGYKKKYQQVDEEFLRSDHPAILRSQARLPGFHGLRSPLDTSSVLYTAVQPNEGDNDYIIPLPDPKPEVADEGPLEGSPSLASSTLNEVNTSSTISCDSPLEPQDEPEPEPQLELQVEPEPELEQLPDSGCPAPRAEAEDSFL
T1 sequence (P10721 26-976): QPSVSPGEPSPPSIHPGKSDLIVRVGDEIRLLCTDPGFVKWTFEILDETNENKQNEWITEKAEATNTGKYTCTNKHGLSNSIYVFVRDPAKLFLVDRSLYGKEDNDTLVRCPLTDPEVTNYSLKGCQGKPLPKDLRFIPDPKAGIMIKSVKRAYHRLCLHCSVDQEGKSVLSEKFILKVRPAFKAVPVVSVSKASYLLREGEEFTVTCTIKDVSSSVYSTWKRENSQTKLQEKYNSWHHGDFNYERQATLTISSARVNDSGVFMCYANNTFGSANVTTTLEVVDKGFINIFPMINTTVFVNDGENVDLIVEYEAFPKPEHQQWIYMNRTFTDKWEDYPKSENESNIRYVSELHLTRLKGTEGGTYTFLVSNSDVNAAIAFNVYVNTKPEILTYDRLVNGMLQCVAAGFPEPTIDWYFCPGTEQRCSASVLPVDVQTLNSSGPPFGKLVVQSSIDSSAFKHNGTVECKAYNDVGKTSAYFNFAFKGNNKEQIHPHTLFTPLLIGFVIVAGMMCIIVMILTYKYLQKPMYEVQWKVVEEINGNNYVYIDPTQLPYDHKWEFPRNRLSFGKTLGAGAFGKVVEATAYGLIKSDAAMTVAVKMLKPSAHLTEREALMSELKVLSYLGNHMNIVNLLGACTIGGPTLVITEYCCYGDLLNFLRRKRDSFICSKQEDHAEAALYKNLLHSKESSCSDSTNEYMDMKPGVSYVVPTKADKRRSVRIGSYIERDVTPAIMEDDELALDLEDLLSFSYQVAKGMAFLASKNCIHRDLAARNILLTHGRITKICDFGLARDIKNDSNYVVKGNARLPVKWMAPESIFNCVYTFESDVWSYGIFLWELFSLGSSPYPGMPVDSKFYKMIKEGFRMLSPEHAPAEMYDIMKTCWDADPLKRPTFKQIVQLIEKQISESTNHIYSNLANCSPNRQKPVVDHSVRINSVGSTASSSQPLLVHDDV
T2 sequence (P07333 20-972): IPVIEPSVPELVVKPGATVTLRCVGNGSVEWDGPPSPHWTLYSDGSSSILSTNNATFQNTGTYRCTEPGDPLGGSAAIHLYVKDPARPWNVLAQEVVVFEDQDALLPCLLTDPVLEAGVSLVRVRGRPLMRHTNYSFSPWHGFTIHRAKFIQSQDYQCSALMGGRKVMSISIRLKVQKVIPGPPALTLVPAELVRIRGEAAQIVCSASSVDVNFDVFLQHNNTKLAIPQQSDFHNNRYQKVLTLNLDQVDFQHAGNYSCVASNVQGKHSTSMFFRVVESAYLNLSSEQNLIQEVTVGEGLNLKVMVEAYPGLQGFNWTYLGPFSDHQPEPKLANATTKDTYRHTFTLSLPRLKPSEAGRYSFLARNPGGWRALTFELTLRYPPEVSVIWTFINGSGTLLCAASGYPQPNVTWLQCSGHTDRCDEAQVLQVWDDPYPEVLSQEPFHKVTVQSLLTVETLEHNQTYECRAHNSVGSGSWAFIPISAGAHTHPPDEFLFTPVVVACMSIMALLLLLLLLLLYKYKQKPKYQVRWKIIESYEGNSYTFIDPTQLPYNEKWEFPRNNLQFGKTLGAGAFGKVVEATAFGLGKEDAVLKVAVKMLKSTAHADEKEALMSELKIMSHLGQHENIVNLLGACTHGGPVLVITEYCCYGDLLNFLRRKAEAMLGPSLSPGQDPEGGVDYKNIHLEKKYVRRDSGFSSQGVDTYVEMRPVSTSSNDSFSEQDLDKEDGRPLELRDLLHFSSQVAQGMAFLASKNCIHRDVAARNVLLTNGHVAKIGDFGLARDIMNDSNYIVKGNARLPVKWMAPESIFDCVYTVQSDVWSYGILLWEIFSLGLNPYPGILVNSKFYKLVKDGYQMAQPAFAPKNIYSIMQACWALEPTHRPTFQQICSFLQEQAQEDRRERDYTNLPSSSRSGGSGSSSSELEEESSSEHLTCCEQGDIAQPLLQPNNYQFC

SMILES | IC50 (c-KIT) [nM] | IC50 (cFMS) [nM] | IC50 (PDGFR beta) [nM]
COCCOc1ccn2c(C(=O)Nc3cccc4c3cnn4Cc3ccc(OC)cc3)cnc2c1 [Example 114, N-(1-(4-methoxybenzyl)-1H-indazol-4-yl)-7-(2-methoxyethoxy)imidazo[1,2-a]pyridine-3-carboxamide] | 8.7 | 24.6 | 9.3
COCCOc1ccn2c(C(=O)Nc3cccc4c3cnn4CC3CCCCC3)cnc2c1 [Example 115, N-(1-(cyclohexylmethyl)-1H-indazol-4-yl)-7-(2-methoxyethoxy)imidazo[1,2-a]pyridine-3-carboxamide] | 13.4 | 24.1 | 6.8
COCCOc1ccn2c(C(=O)Nc3cccc4c3cnn4CC3CCCN(C(=O)OC(C)(C)C)C3)cnc2c1 (stereo not drawn) [Example 116, tert-butyl 3-((4-(7-(2-methoxyethoxy)imidazo[1,2-a]pyridine-3-carboxamido)-1H-indazol-1-yl)methyl)piperidine-1-carboxylate] | 192 | 185 | 54
COCCOc1ccn2c(C(=O)Nc3cccc4c3cnn4Cc3cccnc3C)cnc2c1 [Example 118, 7-(2-methoxyethoxy)-N-(1-((2-methylpyridin-3-yl)methyl)-1H-indazol-4-yl)imidazo[1,2-a]pyridine-3-carboxamide] | 581 | 310 | 178
COCCOc1ccn2c(C(=O)Nc3cccc4c3cnn4Cc3cccc(OCc4ccccc4)c3)cnc2c1 [Example 119, N-(1-(3-(benzyloxy)benzyl)-1H-indazol-4-yl)-7-(2-methoxyethoxy)imidazo[1,2-a]pyridine-3-carboxamide] | 23 | 26.3 | 17.4
COCCOc1ccn2c(C(=O)Nc3cccc4c3cnn4Cc3ccc(C(F)(F)F)cc3)cnc2c1 [Example 120, 7-(2-methoxyethoxy)-N-(1-(4-(trifluoromethyl)benzyl)-1H-indazol-4-yl)imidazo[1,2-a]pyridine-3-carboxamide] | 14.5 | 34.4 | 7.7
COCCOc1ccn2c(C(=O)Nc3cccc4c3cnn4Cc3cccnc3)cnc2c1 [Example 121, 7-(2-methoxyethoxy)-N-(1-(pyridin-3-ylmethyl)-1H-indazol-4-yl)imidazo[1,2-a]pyridine-3-carboxamide] | 73.1 | 20.9 | 13.3
COCCOc1ccn2c(C(=O)Nc3cccc4c3cnn4CC3CCN(C(=O)OC(C)(C)C)CC3)cnc2c1 [Example 122, tert-butyl 4-((4-(7-(2-methoxyethoxy)imidazo[1,2-a]pyridine-3-carboxamido)-1H-indazol-1-yl)methyl)piperidine-1-carboxylate] | 60.9 | 131 | 49.5
COCCOc1ccn2c(C(=O)Nc3cccc4c3cnn4Cc3ccc(C)nc3)cnc2c1 [Example 124, 7-(2-methoxyethoxy)-N-(1-((6-methylpyridin-3-yl)methyl)-1H-indazol-4-yl)imidazo[1,2-a]pyridine-3-carboxamide] | 9.5 | 8.3 | 6.9
COc1ccn2c(C(=O)Nc3cccc4c3cnn4Cc3ccccc3)cnc2c1 [Example 125, N-(1-benzyl-1H-indazol-4-yl)-7-methoxyimidazo[1,2-a]pyridine-3-carboxamide] | 19.8 | 12.5 | 2.1
O=C(Nc1cccc2c1cnn2Cc1ccccc1)c1cnc2ccccn12 [Example 126, N-(1-benzyl-1H-indazol-4-yl)imidazo[1,2-a]pyridine-3-carboxamide] | 22.2 | 27.4 | 34.5
CCOc1ccn2c(C(=O)Nc3cccc4c3cnn4Cc3ccccc3)cnc2c1 [Example 127, N-(1-benzyl-1H-indazol-4-yl)-7-ethoxyimidazo[1,2-a]pyridine-3-carboxamide] | 67.8 | 14.9 | 1.7
O=C(Nc1cccc2c1cnn2Cc1ccccn1)c1cnc2ccccn12 [Example 129, N-(1-(pyridin-2-ylmethyl)-1H-indazol-4-yl)imidazo[1,2-a]pyridine-3-carboxamide] | 124 | 80 | 117
COCCOc1ccn2c(C(=O)Nc3cccc4c3cnn4CC3CCCNC3)cnc2c1 (stereo not drawn) [Example 131, 7-(2-methoxyethoxy)-N-(1-(piperidin-3-ylmethyl)-1H-indazol-4-yl)imidazo[1,2-a]pyridine-3-carboxamide hydrochloride] | 5000 | 993 | 682
COCCOc1ccn2c(C(=O)Nc3cccc4c3cnn4CC3CCCN(C(C)=O)C3)cnc2c1 (stereo not drawn) [Example 132, N-(1-((1-acetylpiperidin-3-yl)methyl)-1H-indazol-4-yl)-7-(2-methoxyethoxy)imidazo[1,2-a]pyridine-3-carboxamide] | 604 | 134 | 170
COCCOc1ccn2c(C(=O)Nc3c(Br)ccc4c3cnn4Cc3ccccc3)cnc2c1 [Example 134, N-(1-Benzyl-5-bromo-1H-indazol-4-yl)-7-(2-methoxyethoxy)imidazo[1,2-a]pyridine-3-carboxamide] | 11 | 3.1 | 2.4
COCCOc1ccn2c(C(=O)Nc3ccc(Cl)c4c3cnn4Cc3ccccc3)cnc2c1 [Example 135, N-(1-benzyl-7-chloro-1H-indazol-4-yl)-7-(2-methoxyethoxy)imidazo[1,2-a]pyridine-3-carboxamide] | 396 | 228 | 362
COCCOc1ccn2c(C(=O)Nc3c(Cl)cc(Cl)c4c3cnn4Cc3ccccc3)cnc2c1 [Example 136, N-(1-benzyl-5,7-dichloro-1H-indazol-4-yl)-7-(2-methoxyethoxy)imidazo[1,2-a]pyridine-3-carboxamide] | 54.1 | 20.7 | 1000
COCCOc1ccn2c(C(=O)Nc3c(Cl)ccc4c3cnn4Cc3ccccc3)cnc2c1 [Example 137, N-(1-benzyl-5-chloro-1H-indazol-4-yl)-7-(2-methoxyethoxy)imidazo[1,2-a]pyridine-3-carboxamide] | 3.1 | 3.1 | 2
CC(C)c1cccc(Cn2ncc3c(NC(=O)c4cnc5cc(OCCN6CCN(C)CC6)ccn45)cccc32)n1 [Example 138, N-(1-((6-isopropylpyridin-2-yl)methyl)-1H-indazol-4-yl)-7-(2-(4-methylpiperazin-1-yl)ethoxy)imidazo[1,2-a]pyridine-3-carboxamide] | 3.9 | 8.5 | 1.9
Cc1cc(Cn2ncc3c(NC(=O)c4cnc5cc(OCCN6CCN(C)CC6)ccn45)cccc32)nn1C(C)C [Example 139, N-(1-((1-isopropyl-5-methyl-1H-pyrazol-3-yl)methyl)-1H-indazol-4-yl)-7-(2-(4-methylpiperazin-1-yl)ethoxy)imidazo[1,2-a]pyridine-3-carboxamide] | 7.9 | 10.6 | 1.3
COCCOc1ccn2c(C(=O)Nc3cccc4c3cnn4Cc3cccc(OC)c3)cnc2c1 [Example 140, N-(1-(3-methoxybenzyl)-1H-indazol-4-yl)-7-(2-methoxyethoxy)imidazo[1,2-a]pyridine-3-carboxamide] | 4.8 | 3.1 | 2.5
COCCOc1ccn2c(C(=O)Nc3cccc4c3cnn4Cc3cccc(Cl)c3)cnc2c1 [Example 141, N-(1-(3-chlorobenzyl)-1H-indazol-4-yl)-7-(2-methoxyethoxy)imidazo[1,2-a]pyridine-3-carboxamide] | 3.7 | 4.4 | 1.6
COCCOc1ccn2c(C(=O)Nc3cccc4c3cnn4Cc3cccc(C)n3)cnc2c1 [Example 142, 7-(2-methoxyethoxy)-N-(1-((6-methylpyridin-2-yl)methyl)-1H-indazol-4-yl)imidazo[1,2-a]pyridine-3-carboxamide] | 6.1 | 6.9 | 14.2
COCCOc1ccn2c(C(=O)Nc3cccc4c3cnn4Cc3cccc(C)c3)cnc2c1 [Example 143, 7-(2-methoxyethoxy)-N-(1-(3-methylbenzyl)-1H-indazol-4-yl)imidazo[1,2-a]pyridine-3-carboxamide] | 58.9 | 4.8 | 12
O=C(Nc1cccc2c1cnn2Cc1ccccc1)c1cnc2cc(-c3cn[nH]c3)ccn12 [Example 145, N-(1-benzyl-1H-indazol-4-yl)-7-(1H-pyrazol-4-yl)imidazo[1,2-a]pyridine-3-carboxamide] | 55.9 | 20.5 | 13
CC(=O)c1ccn2c(C(=O)Nc3cccc4c3cnn4Cc3ccccc3)cnc2c1 [Example 146, 7-acetyl-N-(1-benzyl-1H-indazol-4-yl)imidazo[1,2-a]pyridine-3-carboxamide] | 36.9 | 58.2 | 109
